The values that follow come from patent US5053006A, “Method for the permanent occlusion of arteries” (priority 1990, dated 1991).

For data set [1] the following is noted: compared with rose bengal; cited from earlier work.
A further data set concerns middle cerebral artery. The experiment in a line: Erythrosin B photothrombotic occlusion of middle cerebral artery. It counts as in vivo, rat.
A short description of data set [2]: Absorption / excitation of the dye in tissue. It counts as physicochemical. To be noted: endothelial tissue. The source says:
Examples of lasers that can be used to provide the light beam include the He-Ne laser, the argon ion laser and the argon-pumped dye laser. The 543.5 nm He-Ne laser, for example, can excite rose bengal with an efficiency of 58% of the maximum. (The wavelength at which excitation efficiency for rose bengal is maximal in tissue occurs at 562 nm.) Because the maximum theoretical power output is only 4 or 5 milliwatts, the 543.5 nm He-Ne laser is not used in clinical applications at this time. However, this laser is expected to be particularly useful in permanently occluding relatively low-flow arteries, smaller than about 200 μm, such as those in the choroid of the eye.
The argon ion laser is the most common clinical laser used at this time. Although the commonly used argon 514.5 nm line is only 36% efficient with respect to the maximum of rose bengal absorption, this laser is much more powerful (by at least a factor of 1000) and versatile than the He-Ne laser.
The absorption maximum of erythrosin B in endothelial tissue is at 536 nm, which is closer than that of rose bengal to the standard 514.5 nm wavelength of the argon ion laser.

For data set [3] the following is noted: in vivo; cited from earlier work.

For `O.O=C([O-])c1ccccc1-c1c2cc(I)c(=O)c(I)c-2oc2c(I)c([O-])c(I)cc12.[Na+].[Na+]` [erythrosin B], the “quantum efficiency for singlet oxygen production” value in data set [1] was “slightly less”. Moreover, the “photothrombotic efficiency in vivo” value in the data set on middle cerebral artery (514.5 nm argon line, vs rose bengal) is recorded as “comparable photothrombotic efficiency”. For the same molecule, in the data set on middle cerebral artery (i.v., argon ion laser, 680 μM blood concentration), the “photothrombotic occlusion of rat MCA” value is recorded as “photothrombotically occlude the rat middle cerebral artery in the same fashion as rose bengal”. Also, the “absorption maximum in endothelial tissue” value in data set [2] came out at 536 nm.

For the molecule “dihematoporphyrin ether [dihematoporphyrin ether derivative]”, the half life result in data set [3] is reported as “so long”.
